Source: patent US20260049072A1, “HETEROCYCLIC COMPOUND FOR INDUCING DEGRADATION OF MUTANT KRAS PROTEIN” (Astellas Pharma Inc., priority 2022, published 2026)

Key:
[1] = molecular target: T1, RAS G12D (Homo sapiens, UniProt P01116, G12D); assay: RAS G12D degradation activity, Cell ELISA, AsPC-1; assay type: cell-based; conditions: AsPC-1 cells, 24 hours; read-out: DC50 (RAS G12D 50% degradation value)
T1 construct: host or cells: AsPC-1 human pancreatic cancer cells
Method: Test Example 1-2: Evaluation of RAS G12D Degradation Activity on Human KRAS G12D Mutant-Positive Pancreatic Cancer Line AsPC-1
The RAS G12D degradation activities of subject compounds were evaluated in the same manner as in Test Example 1-1 by measuring the expression levels of RAS G12D by a Cell ELISA method.
AsPC-1 cells (ATCC, CRL-1682) were seeded at 36 μL per well on a 384-well plate to give 2.0×10^4 cells per well. As for the cell culture conditions, RPMI-1640 medium (from Sigma-Aldrich) containing 10% fetal bovine serum was used in the presence of 5% CO2 at 37° C.
The next day, the subject compounds (10 points having final concentrations in the range of 3 μM to 0.1 nM) and DMSO, which was the solvent for the subject compounds, as a negative control were diluted 100-fold with a fresh medium and were each added at 4 μL per well, followed by culturing for 24 hours.
The next day, the procedures from the immobilization of the cells to before the addition of the blocking solution were performed by the same methods as in Test Example 1-1. A blocking solution (Intercept Blocking Buffer; from LI-COR Biosciences) was added at 20 μL per well. After allowing the plate to stand for 30 minutes at room temperature, the supernatant was removed by centrifugation. A solution obtained by diluting an anti-R-actin antibody (1,000-fold dilution) with the blocking solution was added to the wells of the positive control as a primary antibody, and a solution obtained by diluting an anti-Ras (G12D Mutant Specific) antibody (Ras (G12D Mutant Specific) (D8H7) Rabbit mAb; from Cell Signaling Technology; 1,000-fold dilution) and an anti-3-actin antibody (1,000-fold dilution) with the blocking solution was added to the other wells as primary antibodies, each at 15 μL per well. The plate was allowed to stand overnight at 4° C.
The next day, the supernatant was removed by centrifugation, and the plate was washed with PBS. The supernatant was removed by centrifugation, and a solution obtained by diluting an anti-rabbit IgG antibody and an anti-mouse IgG antibody 1,000-fold with the blocking solution was added at 15 μL per well as secondary antibodies. After allowing the plate to stand at room temperature for an hour, the supernatant was removed by centrifugation, and the plate was washed with PBS. After removing the supernatant, the plate was dried as it was with air at room temperature for two hours or more, and the 700-nm and 800-nm fluorescent signals were measured with Aerius.
With the RAS G12D signaling value at the time of addition of DMSO corrected with the signaling value of β-actin taken as 0% and with the RAS G12D signaling value under the conditions of staining with the anti-β-actin antibody alone taken as 100%, the RAS G12D degradation rates were calculated. The 50% degradation values (DC50) were calculated by Sigmoid-Emax model nonlinear regression analysis.

[2] = system: AsPC-1 cells; assay: Non-anchorage-dependent cell growth inhibition (spheroid 3D culture), AsPC-1; assay type: cell-based; conditions: Homo sapiens, ASPC1, 144 h; KRAS G12D mutant-positive, 3D spheroid, six days, CellTiter-Glo 2.0; read-out: AsPC-1 IC50
Method: Test Example 3: Evaluation of Non-Anchorage-Dependent Cell Growth Inhibitory Activity on Human KRAS G12V Mutant-Positive Pancreatic Cancer Line PA-TU-8902, Human KRAS G12D Mutant-Positive Pancreatic Cancer Line AsPC-1 or Human KRAS G12C Mutant-Positive Pancreatic Cancer Line MIA PaCa-2
The non-anchorage-dependent cell growth inhibitory activities of subject compounds were evaluated by spheroid 3D cell culture.
PA-TU-8902 cells, AsPC-1 cells or MIA PaCa-2 cells (RIKEN BRC, RCB2094) were seeded at 36 µL/well on a low-cell-adhesive round bottom 384-well plate (Prime Surface: from Sumitomo Bakelite) to give 5×10^2 cells per well. The PA-TU-8902 cells were under the same conditions as in Test Example 1-1, and the AsPC-1 cells were under the same conditions as in Test Example 1-2. For the MIA PaCa-2 cells, RPMI-1640 medium containing 10% fetal bovine serum was used in the presence of 5% CO2 at 37° C.
The next day, the subject compounds (6-9 points having final concentrations in the range of 3 μM to 0.3 nM) and DMSO, which was the solvent for the subject compounds, as a negative control were diluted 100-fold with a fresh medium and were each added at 4 μL per well. After culturing in the presence of 5% CO2 at 37° C. for six days, CellTiter-Glo 2.0 (from Promega) was added at 20 μL per well. After stirring with a plate mixer (from FINEPCR) at normal temperature for an hour, the luminescent signals were measured with ARVO X3 (from PerkinElmer).
With the signaling value in treatment with DMSO taken as 0% inhibition and with the signaling value in the medium alone without cells taken as 100% inhibition, the 50% inhibition values (IC50) were calculated by Sigmoid-Emax model nonlinear regression analysis.

T1 sequence (P01116 1-188 isoform P01116-2 G12D): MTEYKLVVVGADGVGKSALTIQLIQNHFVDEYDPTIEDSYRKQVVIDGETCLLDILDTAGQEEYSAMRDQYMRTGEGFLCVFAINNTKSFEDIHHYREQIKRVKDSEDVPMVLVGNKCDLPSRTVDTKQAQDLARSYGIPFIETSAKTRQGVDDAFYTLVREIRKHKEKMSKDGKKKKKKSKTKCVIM

Row | DC50 [1] | IC50 [2] | Structure (SMILES)
1 | 21 nM | 25 nM | Cc1ncsc1-c1ccc([C@H](CO)NC(=O)[C@@H]2C[C@@H](O)CN2C(=O)[C@H](C(C)C)n2cc(-c3ccc(COc4c(-c5c(C)c(F)cc6[nH]ncc56)c(C5CC5)cc5c(NCc6cccnc6)nc(OC6CCOCC6)nc45)cc3)nn2)cc1 [Example 29]
2 | 8 nM | 43 nM | CO[C@@H](C)COc1nc(N2CCOCC2)c2cc(C3CC3)c(-c3c(C)c(F)cc4[nH]ncc34)c(OCc3ccc(-c4cn([C@H](C(=O)N5C[C@H](O)C[C@H]5C(=O)N[C@@H](CO)c5ccc(-c6scnc6C)cc5)C(C)C)nn4)cc3)c2n1 (atropisomer, axis not shown) [Example 21]
3 | 26 nM | 32 nM | CNCCNC(=O)N1CC(Oc2nc(OC[C@H](C)OC)nc3c(OCc4ccc(-c5cn([C@H](C(=O)N6C[C@H](O)C[C@H]6C(=O)N[C@@H](CO)c6ccc(-c7scnc7C)cc6)C(C)C)nn5)cc4)c(-c4c(C)c(F)cc5[nH]ncc45)c(C4CC4)cc23)C1 (atropisomer, axis not shown) [Example 18]
4 | 5 nM | 28 nM | CO[C@@H](C)COc1nc(NC2CN(C(=O)O[C@H]3C[C@@H](N(C)C)C3)C2)c2cc(C3CC3)c(-c3c(C)c(F)cc4[nH]ncc34)c(OCc3ccc(-c4cn([C@H](C(=O)N5C[C@H](O)C[C@H]5C(=O)N[C@@H](CO)c5ccc(-c6ocnc6C)cc5)C(C)C)nn4)cc3)c2n1 (atropisomer, axis not shown; (M)) [Example 1, (1s,3R)-3-(dimethylamino)cyclobutyl 3-({(7M)-6-cyclopropyl-7-(6-fluoro-5-methyl-1H-indazol-4-yl)-8-{[4-(1-{(2S)-1-[(2S,4R)-4-hydroxy-2-({(1R)-2-hydroxy-1-[4-(4-methyl-1,3-oxazol-5-yl)phenyl]ethyl}carbamoyl)pyrrolidin-1-yl]-3-methyl-1-oxobutan-2-yl}-1H-1,2,3-triazol-4-yl)phenyl]methoxy}-2-[(2S)-2-methoxypropoxy]quinazolin-4-yl}amino)azetidine-1-carboxylate]
5 | 2 nM | 19 nM | CO[C@@H](C)COc1cc(OC2CN(C(=O)N3CC(CN(C)C)C3)C2)c2cc(C3CC3)c(-c3c(C)c(F)cc4[nH]ncc34)c(OCc3ccc(-c4cn([C@H](C(=O)N5C[C@H](O)C[C@H]5C(=O)N[C@@H](CO)c5ccc(-c6scnc6C)cc5)C(C)C)nn4)cc3)c2n1 (atropisomer, axis not shown; (M)) [Example 14, (4R)-1-[(2S)-2-(4-{4-[({(7M)-6-cyclopropyl-4-[(1-{3-[(dimethylamino)methyl]azetidine-1-carbonyl}azetidin-3-yl)oxy]-7-(6-fluoro-5-methyl-1H-indazol-4-yl)-2-[(2S)-2-methoxypropoxy]quinolin-8-yl}oxy)methyl]phenyl}-1H-1,2,3-triazol-1-yl)-3-methylbutanoyl]-4-hydroxy-N-{(1R)-2-hydroxy-1-[4-(4-methyl-1,3-thiazol-5-yl)phenyl]ethyl}-L-prolinamide]
6 | 16 nM | 10 nM | Cc1ncsc1-c1ccc([C@H](CO)NC(=O)[C@@H]2C[C@@H](O)CN2C(=O)[C@H](C(C)C)n2cc(-c3ccc(COc4c(-c5c(C)c(F)cc6[nH]ncc56)c(C5CC5)cc5c(N6CC[C@H]6C(N)=O)nc(OC6CCOCC6)nc45)cc3)nn2)cc1 [Example 35]
7 | 16 nM | 68 nM | CO[C@@H](C)COc1nc(N2CC(C#N)C2)c2cc(C3CC3)c(-c3c(C)c(F)cc4[nH]ncc34)c(OCc3ccc(-c4cn([C@H](C(=O)N5C[C@H](O)C[C@H]5C(=O)N[C@@H](CO)c5ccc(-c6scnc6C)cc5)C(C)C)nn4)cc3)c2n1 (atropisomer, axis not shown) [Example 20]
8 | 5 nM | 19 nM | COC(C)(C)COc1cc(OC2CN(C(=O)N3CC(CN(C)C)C3)C2)c2cc(C3CC3)c(-c3c(C)c(F)cc4[nH]ncc34)c(OCc3ccc(-c4cn([C@H](C(=O)N5C[C@H](O)C[C@H]5C(=O)N[C@@H](CO)c5ccc(-n6cncn6)cc5)C(C)C)nn4)cc3)c2n1 (atropisomer, axis not shown) [Example 9]
9 | 20 nM | 38 nM | CO[C@@H](C)COc1nc(NC2CN(C(=O)O[C@H]3C[C@@H](N(C)C)C3)C2)c2cc(C3CC3)c(-c3c(C)c(F)cc4[nH]ncc34)c(OCc3ccc(-c4cn([C@H](C(=O)N5C[C@H](O)C[C@H]5C(=O)N[C@@H](CO)c5ccc(N6CCOC6=O)cc5)C(C)C)nn4)cc3)c2n1 (atropisomer, axis not shown) [Example 4]
10 | 6 nM | 8 nM | CO[C@@H](C)COc1cc(OC2CN(C(=O)N3CC(CN(C)C)C3)C2)c2cc(C3CC3)c(-c3c(C)c(F)cc4[nH]ncc34)c(OCc3ccc(-c4cn([C@H](C(=O)N5C[C@H](O)C[C@H]5C(=O)N[C@@H](CO)c5ccc(-n6cncn6)cc5)C(C)C)nn4)cc3)c2n1 (atropisomer, axis not shown; (M)) [Example 5, (4R)-1-[(2S)-2-(4-{4-[({(7M)-6-cyclopropyl-4-[(1-{3-[(dimethylamino)methyl]azetidine-1-carbonyl}azetidin-3-yl)oxy]-7-(6-fluoro-5-methyl-1H-indazol-4-yl)-2-[(2S)-2-methoxypropoxy]quinolin-8-yl}oxy)methyl]phenyl}-1H-1,2,3-triazol-1-yl)-3-methylbutanoyl]-4-hydroxy-N-{(1R)-2-hydroxy-1-[4-(1H-1,2,4-triazol-1-yl)phenyl]ethyl}-L-prolinamide]
11 | 5 nM | 11 nM | CO[C@@H](C)COc1nc(NC2CN(C(=O)O[C@H]3C[C@@H](N(C)C)C3)C2)c2cc(C3CC3)c(-c3c(C)c(F)cc4[nH]ncc34)c(OCc3ccc(-c4cn([C@H](C(=O)N5C[C@H](O)C[C@H]5C(=O)N[C@@H](CO)c5ccc(-n6cncn6)cc5)C(C)C)nn4)cc3)c2n1 (atropisomer, axis not shown; (M)) [Example 2, (1s,3R)-3-(dimethylamino)cyclobutyl 3-({(7M)-6-cyclopropyl-7-(6-fluoro-5-methyl-1H-indazol-4-yl)-8-{[4-(1-{(2S)-1-[(2S,4R)-4-hydroxy-2({(1R)-2-hydroxy-1-[4-(1H-1,2,4-triazol-1-yl)phenyl]ethyl}carbamoyl)pyrrolidin-1-yl]-3-methyl-1-oxobutan-2-yl}-1H-1,2,3-triazol-4-yl)phenyl]methoxy}-2-[(2S)-2-methoxypropoxy]quinazolin-4-yl}amino)azetidine-1-carboxylate]
12 | 11 nM | 16 nM | CO[C@@H](C)COc1nc(OC2CN(C(=O)NCCN(C)C)C2)c2cc(C3CC3)c(-c3c(C)c(F)cc4[nH]ncc34)c(OCc3ccc(-c4cn([C@H](C(=O)N5C[C@H](O)C[C@H]5C(=O)N[C@@H](CO)c5ccc(-c6scnc6C)cc5)C(C)C)nn4)cc3)c2n1 (atropisomer, axis not shown) [Example 17]
